What was measured:
[1] = biological target: T1, ATR kinase (full-length ATR) (Homo sapiens, UniProt Q13535); test: ATR Inhibition Assay (radioactive-phosphate incorporation); assay type: biochemical; details: Ki(app); 5 nM full-length ATR, 10 μM ATP, 800 μM target peptide, 25° C.
T1 construct: in the presence of 5 nM full-length ATR
Description: Compounds were screened for their ability to inhibit ATR kinase using a radioactive-phosphate incorporation assay. Assays were carried out in a mixture of 50 mM Tris/HCl (pH 7.5), 10 mM MgCl2 and 1 mM DTT. Final substrate concentrations were 10 μM [γ-33P]ATP (3 mCi 33P ATP/mmol ATP, Perkin Elmer) and 800 μM target peptide (ASELPASQPQPFSAKKK (SEQ. ID NO: 1)).
Assays were carried out at 25° C. in the presence of 5 nM full-length ATR. An assay stock buffer solution was prepared containing all of the reagents listed above, with the exception of ATP and the test compound of interest. 13.5 μL of the stock solution was placed in a 96 well plate followed by addition of 2 μL of DMSO stock containing serial dilutions of the test compound (typically starting from a final concentration of 15 μM with 3-fold serial dilutions) in duplicate (final DMSO concentration 7%). The plate was pre-incubated for 10 minutes at 25° C. and the reaction initiated by addition of 15 μL [γ-33P]ATP (final concentration 10 μM).
The reaction was stopped after […] by the addition of 30 μL 0.1M phosphoric acid containing 2 mM ATP. A multiscreen phosphocellulose filter 96-well plate (Millipore, Cat no. MAPHN0B50) was pretreated with 100 μL 0.2M phosphoric acid prior to the addition of 45 μL of the stopped assay mixture. The plate was washed with 5×200 μL 0.2M phosphoric acid. After drying, 100 μL Optiphase ‘SuperMix’ liquid scintillation cocktail (Perkin Elmer) was added to the well prior to scintillation counting (1450 Microbeta Liquid Scintillation Counter, Wallac).
After removing mean background values for all of the data points, Ki(app) data were calculated from non-linear regression analysis of the initial rate data using the Prism software package (GraphPad Prism version 3.0cx for Macintosh, GraphPad Software, San Diego Calif., USA).

[2] = system: HCT116 colorectal cancer cells; test: Cisplatin Sensitization Assay (96 h cell viability MTS); assay type: cell-based; details: concentration of compound required to reduce the IC50 of Cisplatin alone by at least 3-fold; HCT116, 96 h MTS
Description: Compounds can be screened for their ability to sensitize HCT116 colorectal cancer cells to Cisplatin using a 96 h cell viability (MTS) assay. […] Compounds and Cisplatin are then both added simultaneously to the cell media in 2-fold serial dilutions from a top final concentration of 10 μM as a full matrix of concentrations in a final cell volume of 200 μl, and the cells are then incubated at 37° C. in 5% CO2. After 96 h, 40 μl of MTS reagent (Promega G358a) is added to each well and the cells are incubated for 1 h at 37° C. in 5% CO2. Finally, absorbance is measured at 490 nm using a SpectraMax Plus 384 reader (Molecular Devices) and the concentration of compound required to reduce the IC50 of Cisplatin alone by at least 3-fold (to 1 decimal place) can be reported.

T1 sequence (Q13535 whole entry): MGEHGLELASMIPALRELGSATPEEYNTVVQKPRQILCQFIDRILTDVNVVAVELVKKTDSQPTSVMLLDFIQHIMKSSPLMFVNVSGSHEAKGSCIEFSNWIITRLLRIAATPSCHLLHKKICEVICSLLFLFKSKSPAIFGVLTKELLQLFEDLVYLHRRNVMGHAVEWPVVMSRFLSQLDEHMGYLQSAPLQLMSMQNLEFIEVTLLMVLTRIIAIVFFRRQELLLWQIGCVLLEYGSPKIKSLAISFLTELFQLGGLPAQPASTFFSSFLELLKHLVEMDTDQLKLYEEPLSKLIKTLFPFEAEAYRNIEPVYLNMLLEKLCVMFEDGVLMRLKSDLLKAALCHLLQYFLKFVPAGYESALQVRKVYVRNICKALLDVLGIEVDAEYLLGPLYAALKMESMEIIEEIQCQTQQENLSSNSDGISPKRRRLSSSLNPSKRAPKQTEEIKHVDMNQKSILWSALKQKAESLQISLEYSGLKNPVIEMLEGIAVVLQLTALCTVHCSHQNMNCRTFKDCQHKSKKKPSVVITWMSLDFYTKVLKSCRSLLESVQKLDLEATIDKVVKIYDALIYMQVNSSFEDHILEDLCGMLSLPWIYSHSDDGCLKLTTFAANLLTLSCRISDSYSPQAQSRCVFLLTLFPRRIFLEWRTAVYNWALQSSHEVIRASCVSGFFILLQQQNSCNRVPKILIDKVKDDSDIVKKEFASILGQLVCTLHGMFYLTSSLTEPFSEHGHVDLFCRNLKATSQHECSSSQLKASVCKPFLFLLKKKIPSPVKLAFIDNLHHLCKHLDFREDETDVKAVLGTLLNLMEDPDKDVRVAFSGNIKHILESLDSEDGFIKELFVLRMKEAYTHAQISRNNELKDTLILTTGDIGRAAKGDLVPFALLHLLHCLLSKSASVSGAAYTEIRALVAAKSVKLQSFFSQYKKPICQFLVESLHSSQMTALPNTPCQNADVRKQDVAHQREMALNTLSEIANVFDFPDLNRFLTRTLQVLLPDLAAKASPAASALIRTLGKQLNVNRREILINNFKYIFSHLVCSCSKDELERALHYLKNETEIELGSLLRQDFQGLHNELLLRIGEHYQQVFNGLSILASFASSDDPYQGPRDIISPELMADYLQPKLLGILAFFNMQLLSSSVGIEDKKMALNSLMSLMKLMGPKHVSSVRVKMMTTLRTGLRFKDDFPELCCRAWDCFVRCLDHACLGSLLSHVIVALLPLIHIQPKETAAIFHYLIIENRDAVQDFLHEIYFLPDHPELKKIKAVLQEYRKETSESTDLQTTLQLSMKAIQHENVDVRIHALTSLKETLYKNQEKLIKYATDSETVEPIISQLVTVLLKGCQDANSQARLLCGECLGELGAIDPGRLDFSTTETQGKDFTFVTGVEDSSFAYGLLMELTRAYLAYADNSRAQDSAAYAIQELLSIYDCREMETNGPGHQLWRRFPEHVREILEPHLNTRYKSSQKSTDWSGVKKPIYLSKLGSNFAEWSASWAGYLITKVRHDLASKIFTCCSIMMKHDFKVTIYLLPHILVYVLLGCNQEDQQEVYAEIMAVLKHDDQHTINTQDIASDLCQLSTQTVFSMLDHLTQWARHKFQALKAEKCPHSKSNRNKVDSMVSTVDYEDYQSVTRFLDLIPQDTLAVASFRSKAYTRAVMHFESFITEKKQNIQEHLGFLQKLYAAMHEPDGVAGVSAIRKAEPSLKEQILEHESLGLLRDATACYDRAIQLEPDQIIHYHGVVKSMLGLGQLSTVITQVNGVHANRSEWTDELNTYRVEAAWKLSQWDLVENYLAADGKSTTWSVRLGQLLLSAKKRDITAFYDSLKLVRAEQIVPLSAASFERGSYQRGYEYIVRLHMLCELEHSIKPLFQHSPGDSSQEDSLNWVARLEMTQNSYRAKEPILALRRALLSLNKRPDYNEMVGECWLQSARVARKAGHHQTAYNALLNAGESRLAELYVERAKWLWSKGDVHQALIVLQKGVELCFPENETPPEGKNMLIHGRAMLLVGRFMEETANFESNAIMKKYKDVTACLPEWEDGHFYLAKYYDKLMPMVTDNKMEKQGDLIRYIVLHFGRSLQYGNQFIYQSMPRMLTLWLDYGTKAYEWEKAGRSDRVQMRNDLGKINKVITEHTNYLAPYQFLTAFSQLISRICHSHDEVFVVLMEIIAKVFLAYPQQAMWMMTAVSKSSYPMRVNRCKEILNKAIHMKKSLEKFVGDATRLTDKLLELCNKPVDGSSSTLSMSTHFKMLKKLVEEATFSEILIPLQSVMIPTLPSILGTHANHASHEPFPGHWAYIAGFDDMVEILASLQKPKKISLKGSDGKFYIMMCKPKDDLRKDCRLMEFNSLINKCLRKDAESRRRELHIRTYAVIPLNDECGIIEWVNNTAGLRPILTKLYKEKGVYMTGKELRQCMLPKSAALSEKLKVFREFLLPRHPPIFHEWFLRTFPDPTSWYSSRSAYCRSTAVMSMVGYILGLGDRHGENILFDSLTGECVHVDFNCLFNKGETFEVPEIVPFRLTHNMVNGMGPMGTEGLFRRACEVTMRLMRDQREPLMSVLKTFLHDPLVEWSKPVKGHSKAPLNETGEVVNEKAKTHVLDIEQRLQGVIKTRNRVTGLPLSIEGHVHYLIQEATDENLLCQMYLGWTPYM

CN1CCN(C(=O)C2CCN(c3ncncc3NC(=O)c3c(N)nn4cc(F)cnc34)CC2)CC1 [I-A-19, 2-amino-6-fluoro-N-(4-(4-(4-methylpiperazine-1-carbonyl)piperidin-1-yl)pyrimidin-5-yl)pyrazolo[1,5-a]pyrimidine-3-carboxamide]
Ki [1]: 1 to 5 µM | Cisplatin Sensitization Assay [2]: + (Compounds with a Cisplatin sensitization value >0.2 μM but <5 μM are marked with “+.”)

CN1CCN(c2ncncc2NC(=O)c2c(N)nn3cc(F)cnc23)CC1 [I-A-20, 2-amino-6-fluoro-N-(4-(4-methylpiperazin-1-yl)pyrimidin-5-yl)pyrazolo[1,5-a]pyrimidine-3-carboxamide]
Ki [1]: 1 to 5 µM | Cisplatin Sensitization Assay [2]: + (Compounds with a Cisplatin sensitization value >0.2 μM but <5 μM are marked with “+.”)

CN1CCN(c2cnncc2NC(=O)c2c(N)nn3cc(F)cnc23)CC1 [I-B-1, 2-amino-6-fluoro-N-(5-(4-methylpiperazin-1-yl)pyridazin-4-yl)pyrazolo[1,5-a]pyrimidine-3-carboxamide]
Ki [1]: 0.01 to 1 µM | Cisplatin Sensitization Assay [2]: ++ (Compounds with a Cisplatin sensitization value >0.02 μM but <0.2 μM are marked with “++.”)

Nc1nn2cc(F)cnc2c1C(=O)Nc1cnncc1N1CCN(C2COC2)CC1 [I-B-2, 2-amino-6-fluoro-N-(5-(4-(oxetan-3-yl)piperazin-1-yl)pyridazin-4-yl)pyrazolo[1,5-a]pyrimidine-3-carboxamide]
Ki [1]: 0.01 to 1 µM | Cisplatin Sensitization Assay [2]: ++ (Compounds with a Cisplatin sensitization value >0.02 μM but <0.2 μM are marked with “++.”)

Nc1nn2cc(F)cnc2c1C(=O)Nc1cnncc1N1CCN(C2CCOCC2)CC1 [I-B-3, 2-amino-6-fluoro-N-(5-(4-(tetrahydro-2H-pyran-4-yl)piperazin-1-yl)pyridazin-4-yl)pyrazolo[1,5-a]pyrimidine-3-carboxamide]
Ki [1]: 0.01 to 1 µM | Cisplatin Sensitization Assay [2]: ++ (Compounds with a Cisplatin sensitization value >0.02 μM but <0.2 μM are marked with “++.”)

Cc1ncccc1-c1cnncc1NC(=O)c1c(N)nn2cc(F)cnc12 [I-B-4, 2-amino-6-fluoro-N-(5-(2-methylpyridin-3-yl)pyridazin-4-yl)pyrazolo[1,5-a]pyrimidine-3-carboxamide]
Ki [1]: 0.01 to 1 µM | Cisplatin Sensitization Assay [2]: +++ (Compounds with a Cisplatin sensitization value of <0.02 μM are marked with “+++.”)

CN1CCN(C(=O)C2CCN(c3cnncc3NC(=O)c3c(N)nn4cc(F)cnc34)CC2)CC1 [I-B-5, 2-amino-6-fluoro-N-(5-(4-(4-methylpiperazine-1-carbonyl)piperidin-1-yl)pyridazin-4-yl)pyrazolo[1,5-a]pyrimidine-3-carboxamide]
Ki [1]: 0.01 to 1 µM | Cisplatin Sensitization Assay [2]: ++ (Compounds with a Cisplatin sensitization value >0.02 μM but <0.2 μM are marked with “++.”)

Nc1nn2cc(F)cnc2c1C(=O)Nc1cnncc1N1CCC(CN2CCC(F)(F)C2)CC1 [I-B-6, 2-amino-N-(5-(4-((3,3-difluoropyrrolidin-1-yl)methyl)piperidin-1-yl)pyridazin-4-yl)-6-fluoropyrazolo[1,5-a]pyrimidine-3-carboxamide]
Ki [1]: 0.01 to 1 µM | Cisplatin Sensitization Assay [2]: +++ (Compounds with a Cisplatin sensitization value of <0.02 μM are marked with “+++.”)

CN1CCN(Cc2ccc(-c3cnncc3NC(=O)c3c(N)nn4cc(F)cnc34)cc2)CC1 [I-B-7, 2-amino-6-fluoro-N-(5-(4-((4-methylpiperazin-1-yl)methyl)phenyl)pyridazin-4-yl)pyrazolo[1,5-a]pyrimidine-3-carboxamide]
Ki [1]: 0.01 to 1 µM | Cisplatin Sensitization Assay [2]: +++ (Compounds with a Cisplatin sensitization value of <0.02 μM are marked with “+++.”)

Nc1nn2cc(F)cnc2c1C(=O)Nc1cnncc1N1CCC(CN2CCOCC2)CC1 [I-B-8, 2-amino-6-fluoro-N-(5-(4-(morpholinomethyl)piperidin-1-yl)pyridazin-4-yl)pyrazolo[1,5-a]pyrimidine-3-carboxamide]
Ki [1]: 0.01 to 1 µM | Cisplatin Sensitization Assay [2]: ++ (Compounds with a Cisplatin sensitization value >0.02 μM but <0.2 μM are marked with “++.”)

Nc1nn2cc(F)cnc2c1C(=O)Nc1cnncc1N1CCCCC1 [I-B-9, 2-amino-6-fluoro-N-(5-(piperidin-1-yl)pyridazin-4-yl)pyrazolo[1,5-a]pyrimidine-3-carboxamide]
Ki [1]: 0.01 to 1 µM | Cisplatin Sensitization Assay [2]: +++ (Compounds with a Cisplatin sensitization value of <0.02 μM are marked with “+++.”)

CC(C)(C)N1CCN(C(=O)C2CCN(c3cnncc3NC(=O)c3c(N)nn4cc(F)cnc34)CC2)CC1 [I-B-10, 2-amino-N-(5-(4-(4-(tert-butyl)piperazine-1-carbonyl)piperidin-1-yl)pyridazin-4-yl)-6-fluoropyrazolo[1,5-a]pyrimidine-3-carboxamide]
Ki [1]: 0.01 to 1 µM | Cisplatin Sensitization Assay [2]: ++ (Compounds with a Cisplatin sensitization value >0.02 μM but <0.2 μM are marked with “++.”)

CN1CCN(CC2CCN(c3cnncc3NC(=O)c3c(N)nn4cc(F)cnc34)CC2)CC1 [I-B-11, 2-amino-6-fluoro-N-(5-(4-((4-methylpiperazin-1-yl)methyl)piperidin-1-yl)pyridazin-4-yl)pyrazolo[1,5-a]pyrimidine-3-carboxamide]
Ki [1]: 0.01 to 1 µM | Cisplatin Sensitization Assay [2]: ++ (Compounds with a Cisplatin sensitization value >0.02 μM but <0.2 μM are marked with “++.”)

Nc1nn2cc(F)cnc2c1C(=O)Nc1cnncc1N1CCOCC1 [I-B-12, 2-amino-6-fluoro-N-(5-morpholinopyridazin-4-yl)pyrazolo[1,5-a]pyrimidine-3-carboxamide]
Ki [1]: 0.01 to 1 µM | Cisplatin Sensitization Assay [2]: ++ (Compounds with a Cisplatin sensitization value >0.02 μM but <0.2 μM are marked with “++.”)

Cc1nncc(NC(=O)c2c(N)nn3cc(F)cnc23)c1N1CCC(C(=O)N2CCN(C)CC2)CC1 [I-B-14, 2-amino-6-fluoro-N-(6-methyl-5-(4-(4-methylpiperazine-1-carbonyl)piperidin-1-yl)pyridazin-4-yl)pyrazolo[1,5-a]pyrimidine-3-carboxamide]
Ki [1]: 0.01 to 1 µM | Cisplatin Sensitization Assay [2]: +++ (Compounds with a Cisplatin sensitization value of <0.02 μM are marked with “+++.”)

Cn1cncc1-c1cnncc1NC(=O)c1c(N)nn2cc(F)cnc12 [I-B-15, 2-amino-6-fluoro-N-(5-(1-methyl-1H-imidazol-5-yl)pyridazin-4-yl)pyrazolo[1,5-a]pyrimidine-3-carboxamide]
Ki [1]: 0.01 to 1 µM | Cisplatin Sensitization Assay [2]: ++ (Compounds with a Cisplatin sensitization value >0.02 μM but <0.2 μM are marked with “++.”)

Nc1nn2cc(F)cnc2c1C(=O)Nc1cnncc1N1CCC(F)CC1 [I-B-20, 2-amino-6-fluoro-N-(5-(4-fluoropiperidin-1-yl)pyridazin-4-yl)pyrazolo[1,5-a]pyrimidine-3-carboxamide]
Ki [1]: 0.01 to 1 µM | Cisplatin Sensitization Assay [2]: +++ (Compounds with a Cisplatin sensitization value of <0.02 μM are marked with “+++.”)

Nc1nn2cc(F)cnc2c1C(=O)Nc1cnncc1N1CCC(C(=O)N2CC(F)(F)C2)CC1 [I-B-21, 2-amino-N-(5-(4-(3,3-difluoroazetidine-1-carbonyl)piperidin-1-yl)pyridazin-4-yl)-6-fluoropyrazolo[1,5-a]pyrimidine-3-carboxamide]
Ki [1]: 0.01 to 1 µM | Cisplatin Sensitization Assay [2]: +++ (Compounds with a Cisplatin sensitization value of <0.02 μM are marked with “+++.”)

Nc1nn2cc(F)cnc2c1C(=O)Nc1cnncc1N1CCC(C(=O)N2CC(F)C2)CC1 [I-B-22, 2-amino-6-fluoro-N-(5-(4-(3-fluoroazetidine-1-carbonyl)piperidin-1-yl)pyridazin-4-yl)pyrazolo[1,5-a]pyrimidine-3-carboxamide]
Ki [1]: < 0.01 µM | Cisplatin Sensitization Assay [2]: +++ (Compounds with a Cisplatin sensitization value of <0.02 μM are marked with “+++.”)

CS(=O)(=O)C1CCN(c2cnncc2NC(=O)c2c(N)nn3cc(F)cnc23)CC1 [I-B-23, 2-amino-6-fluoro-N-(5-(4-(methylsulfonyl)piperidin-1-yl)pyridazin-4-yl)pyrazolo[1,5-a]pyrimidine-3-carboxamide]
Ki [1]: 0.01 to 1 µM | Cisplatin Sensitization Assay [2]: ++ (Compounds with a Cisplatin sensitization value >0.02 μM but <0.2 μM are marked with “++.”)
